Here are results for 13 molecules from patent US5391554A, “Dihydro- and tetrahydronaphthyridines” (Warner-Lambert Company, priority 1992, dated 1995).

“Also recorded” adds a separate entry of the source. Like-named read-outs stand apart in the source and are kept apart here.

Data set [1] relates to central nervous system. Conditions: cited from earlier work.
The subject of data set [2] is hypoxic tumor cells. Conditions: in vitro and in vivo, background, cited from earlier work.
Data set [3] has as its target T1, Poly (ADP-ribose) synthetase (Bos taurus, UniProt P18493).
T1 construct: Poly(ADP-ribose) synthetase from calf thymus; from tissue; host or cells: calf thymus
In words: Inhibition of Poly (ADP-ribose) synthetase (ADPRP inhibition). It is filed as biochemical. The note with it: [3H]NAD, calf thymus DNA and histone, pH 8.0, 30° C., 15 minutes. As for the experimental part: Poly (ADP-ribose) synthetase is partially purified by the procedure of Shizuta, et al, up to and including the DNA-agarose column step. Active fractions are pooled and stored in small aliquots at -90° C. The specific activity was generally in the range of 25 U/rag protein, where one unit of enzyme activity is defined as the amount polymerizing 1 nmol of ADP-ribose moiety from [^3 H]NAD per minute at 30° C.
The enzyme assay is performed by placing the following in small glass tubes kept at 4° C.: 100 μL of buffer consisting of 0.5 M Tris-HCl pH 8.0, 50 mM MgCl2, and 5 mM dithiothreitol; 50 μL of 1 mM [adenine-2,8-^3 H]nicotinamide adenine dinucleotide at a concentration of 15 μCi/mL; 100 μL of calf thymus DNA (0.3 mg/mL in water); 50 μL of calf thymus histone (Sigma, Type IIA, 0.5 mg/mL); 50 μL of inhibitor or inhibitor solvent; 150 μL of enzyme (25 μg). The components are thoroughly mixed and warmed to 30° C. in a water bath. After 15 minutes the reaction is stopped by adding 2 mL of ice cold 15% trichloroacetic acid and the tubes are placed on ice for 15 minutes. The precipitate is collected on glass fiber filters and washed five times with ice-cold 15% trichloroacetic acid. The filters are dried and radioactivity determined in a liquid scintillation counter.

Data set [4] deals with Rif-1 sarcoma. Kind of data set: In Vivo Assay for Radiosensitizing Activity (Rif-1 sarcoma). The note with it: IP 30 minutes before first x-ray dose, Days 6-10 and 13-17, x-Ray only T-C 18 days. Further details: species or system mice. As for the experimental part: Mice were implanted with 1.9×10^5 Rif-1 sarcoma cells on Day 0. Treatment was on Days 6-10 and 13-17. On each treatment day the tumor-bearing limb received two doses of 2.5 Gy X-irradiation separated by 3 hours. Test compound was administered IP 30 minutes prior to the first x-ray dose on each treatment day. Effectiveness is measured by the T-C, the difference in days for the treated and control tumors, respectively, to reach 1000 mg.

The test system of data set [5] is repair of damage caused by ionizing radiation. The note with it: background; cited from earlier work.

By IC50 is commonly meant the midpoint of a concentration-inhibition curve. Read a low IC50 as higher potency.

T1 sequence (P18493 whole entry): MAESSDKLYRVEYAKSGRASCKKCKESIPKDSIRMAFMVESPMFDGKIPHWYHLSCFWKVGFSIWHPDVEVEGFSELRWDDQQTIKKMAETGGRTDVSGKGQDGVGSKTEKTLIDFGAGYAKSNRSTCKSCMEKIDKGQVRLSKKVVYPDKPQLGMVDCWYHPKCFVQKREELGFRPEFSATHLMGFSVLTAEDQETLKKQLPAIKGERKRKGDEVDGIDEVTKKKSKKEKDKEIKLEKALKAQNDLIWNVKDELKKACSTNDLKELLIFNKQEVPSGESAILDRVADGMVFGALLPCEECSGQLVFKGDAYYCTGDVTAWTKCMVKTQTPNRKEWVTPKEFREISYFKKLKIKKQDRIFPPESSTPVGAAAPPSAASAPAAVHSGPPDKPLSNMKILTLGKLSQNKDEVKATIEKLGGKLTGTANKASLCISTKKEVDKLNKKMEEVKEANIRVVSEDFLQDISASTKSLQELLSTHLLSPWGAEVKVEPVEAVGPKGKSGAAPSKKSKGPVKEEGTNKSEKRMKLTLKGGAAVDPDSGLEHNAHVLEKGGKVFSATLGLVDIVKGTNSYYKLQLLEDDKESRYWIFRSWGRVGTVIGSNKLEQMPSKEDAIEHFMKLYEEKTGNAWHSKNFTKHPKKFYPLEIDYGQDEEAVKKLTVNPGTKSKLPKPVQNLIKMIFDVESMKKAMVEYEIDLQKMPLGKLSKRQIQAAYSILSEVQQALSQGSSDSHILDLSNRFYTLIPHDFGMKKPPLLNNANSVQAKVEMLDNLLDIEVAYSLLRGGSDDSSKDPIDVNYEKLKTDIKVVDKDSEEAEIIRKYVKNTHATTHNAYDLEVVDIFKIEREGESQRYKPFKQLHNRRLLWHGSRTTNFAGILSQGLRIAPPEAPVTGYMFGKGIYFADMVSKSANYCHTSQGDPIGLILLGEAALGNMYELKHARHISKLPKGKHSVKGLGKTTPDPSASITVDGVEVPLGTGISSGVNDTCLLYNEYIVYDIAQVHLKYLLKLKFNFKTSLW

With `Cc1ncc([N+](=O)[O-])n1CCO` [metronidazole, 2-methyl-5-nitro-1H-imidazole-1-ethanol], the CNS side effects result in data set [1] (mouse, in vivo) was “peripheral neuropathy effects and convulsions in mice”. Also, the radiosensitizing activity entry in data set [2] was “effective as radiosensitizers for hypoxic cells in vivo”; in data set [2] (listed as Metronidazole) it was “active both in vitro and in vivo as a radiosensitizer”. In data set [3], `O=c1[nH]ccc2ncccc12` [Compound 3, 1,6-Naphthyridine-5(6H)-one] returned a 50% inhibitory concentration (IC50) of 1000 to 10000 nM. On the same count and under the same terms, next, `Cc1cccc2c1CCNC2=O` [Reference Compound]: 110 nM. Same read-out and setting: next, `O=c1[nH]cc(Br)c2ncccc12` [Compound 5, 8Bromo-1,6-naphthyridine-5(6H) -one]: 1000 to 10000 nM. `O=c1[nH]ccc2c1CCCN2` [Compound 6, 1,2,3,4-Tetrahydro-1,6-naphthyridine-5(6H)-one] returned an IC50 in data set [3] of 1000 to 10000 nM. In data set [3], `Cc1cc2ncccc2c(=O)[nH]1` [Compound 4, 7-Methyl-1,6-naphthyridine-5 (6H) -one] returned an IC50 of 1200 nM.

`C[n+]1cccc2c(=O)[nH]ccc21` [Compound 7, 5,6-Dihydro-1-methyl-5-oxo-1,6-naphthyridin-1-ium monoiodide]: in data set [3], the IC50 fell in the range of 10000 to 100000 nM.

`O=C1NCCc2ncccc21` [Compound 13, 7,8-Dihydro-1,6-naphthyridin-5(6H)-one]: the IC50 in data set [3] is 2500 nM. The “T-C (days for treated minus control tumors to reach 1000 mg)” value in data set [4] (500 mg/kg/inj + x-Ray (2.5 Gy × 2)) stood at 26 days. With `COCC(O)Cn1ccnc1[N+](=O)[O-]` (stereo not drawn) [misonidazole, α-(methoxymethyl)-2-nitro-1H-imidazole-1-ethanol], in data set [1] (administered to mice), the CNS side effects entry is “peripheral neuropathy effects and convulsions in mice”. Besides, the radiosensitizing activity result in data set [2] was “of value as a radiosensitizer for hypoxic tumor cells; also recorded: effective as radiosensitizers for hypoxic cells in vivo”. Molecule `CN1CCCc2c1cc[nH]c2=O` [Compound 8, 1,2,3,4-Tetrahydro-1-methyl-1,6-naphthyridin-5 (6H) one] had an IC50 in data set [3] of 510 nM. Moreover, in data set [4] (340 mg/kg/inj + x-Ray (2.5 Gy × 2)), the “T-C (days for treated minus control tumors to reach 1000 mg)” value stood at 38 days.

Regarding `NC(=O)c1cccc(N)c1` [3-aminobenzamide], in data set [5], the “sensitization to lethal effects of radiation / inhibition of repair” value is “inhibit this postirradiation repair process; also recorded: repair of damage caused by exposure to DNA-damaging agents such as ionizing radiation, was inhibited”. In data set [3], `O=c1[nH]ccc2c1ccc[n+]2[O-]` [Compound 9, 1,6-Naphthyridine-5(6H)-one, 1-oxide] displayed an IC50 of 10000 to 100000 nM. Consider `CNC=O` [N-methylformamide], for which, in data set [5], the “sensitization to lethal effects of radiation / inhibition of repair” value is listed as “sensitize tumors to the lethal effects of radiation”.
